Laboratory results from paper PMC12706794, “Identification and Characterization of a Small-Molecule Inhibitor of the Pseudomonas aeruginosa SOS Response” (ACS Infectious Diseases, 2025).
Converted amounts (≈) assume the structure as drawn.

How the values were obtained:
LexAPa S125A = target: T1, LexAPa S125A (Pseudomonas aeruginosa, UniProt P37452, S125A); test: Isothermal titration calorimetry on LexAPa S125A; type: binding, P. aeruginosa
T1 construct: Concerning full-length LexAPa ^S125A, a biphasic melting curve was obtained for the pure protein; made in house; host or cells: E. coli BL21(DE3)
T1 sequence (P37452 2-204 S125A): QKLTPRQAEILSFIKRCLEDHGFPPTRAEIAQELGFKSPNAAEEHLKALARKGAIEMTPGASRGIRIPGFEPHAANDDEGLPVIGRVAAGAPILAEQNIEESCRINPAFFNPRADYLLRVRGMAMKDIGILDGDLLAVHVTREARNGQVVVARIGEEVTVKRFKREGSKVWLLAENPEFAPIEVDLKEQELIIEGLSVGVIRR
Protocol: To investigate deeper the binding of A12 to the two members of the P. aeruginosa SOS complex, ITC was performed on RecAPa and LexAPa ^S125A (Figure D,E). The integrated binding isotherms of both proteins were best fitted by a “one set of sites” model.
64 μM RecAPa and 58.5 μM LexAPa ^S125A were titrated with the selected compound (2.5 mM solution) using a Microcal PEAQ-ITC instrument (Malvern Panalytical) at 25 °C with a stirring rate of 750 rpm. Proteins and the ligand were dissolved in ITC Buffer (20 mM Tris–HCl, 150 mM NaCl, 5% v/v DMSO, pH 7.5). An initial 0.4 μL injection (excluded from data analysis) was followed by 24 injections of 1.5 μL with a spacing of 150 s between each addition. Blank experiments were performed by injecting the titrant compound in a protein-devoid ITC Buffer. Blank curves were subtracted from all of the experiments. Data were analyzed by using the MicroCal PEAQ-ITC Evaluation software (Malvern Panalytical). Integrated heat signals were fitted by a “one set of sites” binding model to obtain enthalpy changes (ΔH), dissociation constants (K D), and stoichiometry of binding.

[1] = Solubility in aqueous buffers; type: physicochemical; conditions: aqueous buffer, read-out: Solubility in aqueous buffers, concentration above which it strongly worsened
[2] = target: T2, RecAPa*-induced full-length LexAPa autoproteolysis (Pseudomonas aeruginosa, UniProt P37452); test: RecAPa*-induced LexAPa autoproteolysis assay by SDS-PAGE; type: biochemical, P. aeruginosa; conditions: 1 μM full-length LexAPa, 1 μM RecA*Pa, 1 h at 37 °C
T2 construct: Full-length LexAPa was used instead of FlAsH-LexAPa ^CTD; made in house; host or cells: E. coli BL21(DE3)
T2 sequence (P37452 2-204): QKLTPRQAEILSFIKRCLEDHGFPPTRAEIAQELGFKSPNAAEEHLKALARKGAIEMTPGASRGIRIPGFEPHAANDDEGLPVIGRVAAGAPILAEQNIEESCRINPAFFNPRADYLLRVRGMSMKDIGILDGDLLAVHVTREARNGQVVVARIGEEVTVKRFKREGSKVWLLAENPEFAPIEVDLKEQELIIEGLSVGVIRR
Protocol: To further validate the activity of A12 on RecA*Pa-LexAPa, an assay was performed using full-length LexAPa, and autoproteolysis was followed by SDS-PAGE in the presence of different concentrations of A12 (Figure E). Cleavage reactions were performed at 1 μM full-length LexAPa, initiated by the addition of 1 μM RecA*Pa, and stopped after a 1 h incubation at 37 °C, corresponding to the same conditions used for the FP assay.
SDS-PAGE was used as an orthogonal technique to FP to validate the dose-dependent inhibition of RecAPa*-induced LexAPa autocleavage by the selected hit compound.
Full-length LexAPa was used instead of FlAsH-LexAPa ^CTD, but reaction volumes, molar concentrations of reagents, incubation time, and temperature were kept the same as in the FP-based assay. Following 1 h of incubation at 37 °C in the presence of RecAPa*, reactions were stopped by adding Laemmli solubilization buffer and freezing the samples at −20 °C.
Samples were boiled 5 min at 95 °C before being loaded on 4–12% polyacrylamide gels. After Coomassie staining of the gels, the intensity of the bands corresponding to LexAPa and its autoproteolytic fragments was quantified using ImageJ. Data obtained from LexACTD/NTD bands densitometry were used to estimate LexA self-cleavage percent inhibition (scaling all the data from 0%, positive control, to 100%, negative control). […]

## O=C(O)CCNc1ccccc1S [A12, 3-(2-sulfanylanilino)propanoic acid]
LexAPa S125A
  Kd: 7.4 ± 0.5 µM
[1]
  solubility: ~500 µM (≈ 98.6 µg/mL)
[2]
  IC50: 58 ± 5 µM
